Source: patent US9126056B2, “Method of promoting hair growth” (ENERGENESIS BIOMEDICAL CO., LTD., priority 2010, dated 2015)

Tested on: human dermal papilla cells
Assay: Human dermal papilla cell proliferation test
Assay type: cell-based
Settings: 0.002% in culture media; cell count at 12-60 hour; FIG. 1
Protocol: The promotion of cell proliferation by adenine was evaluated using human dermal papilla cells, compared with adenosine, and minoxidil under the following conditions, the results are shown in FIG. 1.
Determination of the proliferation of human dermal papilla cells in the culture media containing adenine, adenosine, and minoxidil. Supplements: 0.002% of adenine, adenosine, minoxidil.
• (1) Prepare 0.002% adenine, adenosine, minoxidil containing testing media using the hair follicle dermal papilla cell media (cat. No. 611-500, Cell applications, Inc). • (2) Seed the isolated human dermal papilla cells in 96-well culture plate with a density of 5,000 cells per well. Add 0.1 mL prepared culture media into individual well. • (3) At 12, 24, 36, 48 and 60 hour after cell seeding, visually count the total cell number using hemacytometer. • (4) Evaluate the result.

## Nc1ncnc2nc[nH]c12 [adenine]
  proliferation of human dermal papilla cells (in words): promotes the proliferation
